In article PMC3119665, “A New Drug Design Targeting the Adenosinergic System for Huntington's Disease” (PLoS ONE, 2011):

Legend:
A3 adenosine receptor = biological target: T1, A3 adenosine receptor (Homo sapiens, UniProt P0DMS8); test: Radioligand binding assay
T1 construct: host or cells: CHO-K1
T1 sequence (P0DMS8 1-318): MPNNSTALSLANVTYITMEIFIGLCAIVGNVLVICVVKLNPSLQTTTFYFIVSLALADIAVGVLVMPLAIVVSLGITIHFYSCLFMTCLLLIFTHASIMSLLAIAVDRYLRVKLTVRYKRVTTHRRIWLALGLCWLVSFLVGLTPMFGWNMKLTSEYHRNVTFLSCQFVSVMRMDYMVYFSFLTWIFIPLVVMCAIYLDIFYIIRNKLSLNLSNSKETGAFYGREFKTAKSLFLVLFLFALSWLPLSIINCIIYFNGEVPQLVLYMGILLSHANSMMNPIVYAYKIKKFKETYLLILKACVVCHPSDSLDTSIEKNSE

[1] = test system: GABAA, Chloride Channel, TBPS; test: Radioligand binding panel (Table S1); parameters: species or system rat; conditions: 10 μM T1-11, n 2
Phorbol Ester = test: Radioligand binding panel (Table S1); parameters: species or system mouse; conditions: 10 μM T1-11, n 2
[2] = test system: Adrenergic α 2, Non-Selective; test: Radioligand binding panel (Table S1); parameters: species or system rat; conditions: 10 μM T1-11, n 2
[3] = biological target: T2, Benzodiazepine, Peripheral (Rattus norvegicus, UniProt P16257); test: Radioligand binding panel (Table S1); conditions: 10 μM T1-11, n 2
T2 construct: purchased MDS Pharma Services Taiwan

Chemokine CCR4 = biological target: T3, Chemokine CCR4 (Homo sapiens, UniProt P51679); test: Radioligand binding panel (Table S1); conditions: 10 μM T1-11, n 2
T3 construct: purchased MDS Pharma Services Taiwan

Erythropoietin EPOR = biological target: T4, Erythropoietin EPOR (Homo sapiens, UniProt P19235); test: Radioligand binding panel (Table S1); conditions: 10 μM T1-11, n 2
T4 construct: purchased MDS Pharma Services Taiwan

[4] = test system: Calcium Channel L-Type, Benzothiazepine; test: Radioligand binding panel (Table S1); parameters: species or system rat; conditions: 10 μM T1-11, n 2
[5] = biological target: T5, G Protein-Coupled Receptor, GPR8 (Homo sapiens, UniProt P48146); test: Radioligand binding panel (Table S1); conditions: 10 μM T1-11, n 2
T5 construct: purchased MDS Pharma Services Taiwan
T5 sequence (P48146 whole entry): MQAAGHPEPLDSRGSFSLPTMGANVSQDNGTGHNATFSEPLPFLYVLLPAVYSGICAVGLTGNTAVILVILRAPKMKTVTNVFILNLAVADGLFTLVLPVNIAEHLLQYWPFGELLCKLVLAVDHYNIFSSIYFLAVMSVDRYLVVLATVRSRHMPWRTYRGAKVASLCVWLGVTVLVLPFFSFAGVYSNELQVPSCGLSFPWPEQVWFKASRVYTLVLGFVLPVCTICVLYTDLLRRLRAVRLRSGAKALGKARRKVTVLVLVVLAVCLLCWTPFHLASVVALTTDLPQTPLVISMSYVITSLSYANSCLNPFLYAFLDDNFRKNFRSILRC

Adrenomedullin AM1 = biological target: T6, Adrenomedullin AM1 (Homo sapiens, UniProt O60895+Q16602); test: Radioligand binding panel (Table S1); conditions: 10 μM T1-11, n 2
T6 construct: purchased MDS Pharma Services Taiwan
T6 sequence (Q16602 23-461): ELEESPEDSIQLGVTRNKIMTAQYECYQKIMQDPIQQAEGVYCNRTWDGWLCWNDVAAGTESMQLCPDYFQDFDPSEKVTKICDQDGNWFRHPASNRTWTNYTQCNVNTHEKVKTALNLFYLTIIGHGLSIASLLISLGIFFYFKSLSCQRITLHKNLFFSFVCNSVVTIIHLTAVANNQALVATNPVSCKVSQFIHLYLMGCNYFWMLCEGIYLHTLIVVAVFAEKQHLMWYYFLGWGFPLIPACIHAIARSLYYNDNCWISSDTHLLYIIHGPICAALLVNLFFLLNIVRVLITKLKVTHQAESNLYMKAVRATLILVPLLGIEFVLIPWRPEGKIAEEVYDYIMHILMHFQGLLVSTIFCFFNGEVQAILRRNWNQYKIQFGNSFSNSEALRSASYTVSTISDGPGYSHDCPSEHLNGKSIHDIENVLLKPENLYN
T6 sequence (O60895 43-175 partner): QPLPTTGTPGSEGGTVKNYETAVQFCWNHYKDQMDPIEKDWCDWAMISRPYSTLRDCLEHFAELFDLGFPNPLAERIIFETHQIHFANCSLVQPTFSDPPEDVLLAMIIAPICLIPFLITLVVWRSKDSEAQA

[6] = biological target: T7, Growth Hormone, Secretagogue (GHS, Ghrelin) (Homo sapiens, UniProt Q92847); test: Radioligand binding panel (Table S1); conditions: 10 μM T1-11, n 2
T7 construct: purchased MDS Pharma Services Taiwan
T7 sequence (Q92847 whole entry): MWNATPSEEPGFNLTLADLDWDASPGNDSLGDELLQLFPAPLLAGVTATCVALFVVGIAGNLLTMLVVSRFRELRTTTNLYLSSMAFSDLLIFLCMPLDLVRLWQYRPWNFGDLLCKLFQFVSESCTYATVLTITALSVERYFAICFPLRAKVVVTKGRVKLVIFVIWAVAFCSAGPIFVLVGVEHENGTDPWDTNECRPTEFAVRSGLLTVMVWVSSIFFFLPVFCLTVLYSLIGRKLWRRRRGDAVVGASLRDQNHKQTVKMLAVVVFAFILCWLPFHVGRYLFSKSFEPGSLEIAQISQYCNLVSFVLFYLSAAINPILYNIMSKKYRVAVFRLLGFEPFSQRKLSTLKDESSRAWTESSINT

Dopamine D1 = biological target: T8, Dopamine D1 (Homo sapiens, UniProt P21728); test: Radioligand binding panel (Table S1); conditions: 10 μM T1-11, n 2
T8 construct: purchased MDS Pharma Services Taiwan
T8 sequence (P21728 whole entry): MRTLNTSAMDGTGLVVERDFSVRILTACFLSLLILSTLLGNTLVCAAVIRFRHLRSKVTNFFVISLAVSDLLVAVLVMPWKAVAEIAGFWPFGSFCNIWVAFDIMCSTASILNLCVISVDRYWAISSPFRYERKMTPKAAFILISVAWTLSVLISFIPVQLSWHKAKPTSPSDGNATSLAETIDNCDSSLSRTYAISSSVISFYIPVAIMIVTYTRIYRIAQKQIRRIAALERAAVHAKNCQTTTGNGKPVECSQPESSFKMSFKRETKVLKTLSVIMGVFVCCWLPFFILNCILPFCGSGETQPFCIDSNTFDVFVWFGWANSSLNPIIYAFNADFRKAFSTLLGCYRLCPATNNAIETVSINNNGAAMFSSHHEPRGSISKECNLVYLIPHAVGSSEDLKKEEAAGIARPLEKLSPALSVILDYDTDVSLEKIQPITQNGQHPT

Colchicine = test: Radioligand binding panel (Table S1); parameters: species or system rat; conditions: 10 μM T1-11, n 2
Method: Radoligand binding assays were performed by MDS Pharma Services Taiwan (Taipei, Taiwan) using standard binding protocols. For the binding assay of the A2AR [67], membrane proteins collected from HEK293 cells overexpressing the human A2AR were incubated in reaction buffer [50 mM Tris-HCl (pH 7.4), 10 mM MgCl2, 1 mM EDTA, and 2 U/mL adenosine deaminase] containing ^3H-CGS21680 (50 nM) for 90 min at 25°C. Nonspecific binding was assessed in the presence of 50 µM adenosine- 5′-N-ethylcarboxamide. […] Nonspecific binding was assessed in the presence of 1 µM IB-MECA (Tocris Bioscience, Ellisville, MS, USA).

Lipoxygenase 5-LO = biological target: T9, Lipoxygenase 5-LO (Homo sapiens, UniProt P09917); test: Radioligand binding panel (Table S1); conditions: 10 μM T1-11, n 2
T9 construct: purchased MDS Pharma Services Taiwan

Cannabinoid CB2 = biological target: T10, Cannabinoid CB2 (Homo sapiens, UniProt P34972); test: Radioligand binding panel (Table S1); conditions: 10 μM T1-11, n 2
T10 construct: purchased MDS Pharma Services Taiwan
T10 sequence (P34972 whole entry): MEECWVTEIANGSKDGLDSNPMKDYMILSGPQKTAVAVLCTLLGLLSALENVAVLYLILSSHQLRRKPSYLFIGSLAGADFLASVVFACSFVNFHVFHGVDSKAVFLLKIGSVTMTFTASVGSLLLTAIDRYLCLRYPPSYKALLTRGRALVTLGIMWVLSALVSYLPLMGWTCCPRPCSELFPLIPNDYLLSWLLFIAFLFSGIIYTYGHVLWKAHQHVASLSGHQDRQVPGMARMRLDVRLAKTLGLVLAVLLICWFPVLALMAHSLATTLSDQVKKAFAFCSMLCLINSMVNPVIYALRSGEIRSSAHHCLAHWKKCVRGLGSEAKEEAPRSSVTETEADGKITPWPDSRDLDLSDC

Aldosterone = biological target: T11, Aldosterone (Rattus norvegicus, UniProt P22199); test: Radioligand binding panel (Table S1); conditions: 10 μM T1-11, n 2
T11 construct: purchased MDS Pharma Services Taiwan

Chemokine CX3CR1 = biological target: T12, Chemokine CX3CR1 (Homo sapiens, UniProt P49238); test: Radioligand binding panel (Table S1); conditions: 10 μM T1-11, n 2
T12 construct: purchased MDS Pharma Services Taiwan

[7] = test system: Neurotensin, Non-Selective; test: Radioligand binding panel (Table S1); parameters: species or system mouse; conditions: 10 μM T1-11, n 2
Thyroid Hormone = test: Radioligand binding panel (Table S1); parameters: species or system rat; conditions: 10 μM T1-11, n 2
Phosphodiesterase PDE1 = test: Radioligand binding panel (Table S1); parameters: species or system human; conditions: 10 μM T1-11, n 2
Histamine H1 = biological target: T13, Histamine H1 (Homo sapiens, UniProt P35367); test: Radioligand binding panel (Table S1); conditions: 10 μM T1-11, n 2
T13 construct: purchased MDS Pharma Services Taiwan
T13 sequence (P35367 whole entry): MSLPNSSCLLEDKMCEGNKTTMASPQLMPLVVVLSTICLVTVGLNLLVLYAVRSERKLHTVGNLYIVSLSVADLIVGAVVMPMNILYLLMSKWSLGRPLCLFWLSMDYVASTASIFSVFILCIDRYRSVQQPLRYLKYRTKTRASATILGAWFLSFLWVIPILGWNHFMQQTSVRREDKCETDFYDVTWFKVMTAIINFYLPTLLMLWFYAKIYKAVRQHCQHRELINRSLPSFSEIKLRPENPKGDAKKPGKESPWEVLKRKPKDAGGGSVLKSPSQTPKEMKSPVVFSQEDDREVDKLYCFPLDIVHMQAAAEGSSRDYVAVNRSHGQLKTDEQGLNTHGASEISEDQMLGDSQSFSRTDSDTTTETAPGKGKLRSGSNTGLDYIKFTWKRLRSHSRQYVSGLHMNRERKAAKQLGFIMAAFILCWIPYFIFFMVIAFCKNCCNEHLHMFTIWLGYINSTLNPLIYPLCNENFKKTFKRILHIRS

[8] = biological target: T14, Serotonin (5-Hydroxytryptamine) 5-HT7 (Homo sapiens, UniProt P34969); test: Radioligand binding panel (Table S1); conditions: 10 μM T1-11, n 2
T14 construct: purchased MDS Pharma Services Taiwan
T14 sequence (P34969 whole entry): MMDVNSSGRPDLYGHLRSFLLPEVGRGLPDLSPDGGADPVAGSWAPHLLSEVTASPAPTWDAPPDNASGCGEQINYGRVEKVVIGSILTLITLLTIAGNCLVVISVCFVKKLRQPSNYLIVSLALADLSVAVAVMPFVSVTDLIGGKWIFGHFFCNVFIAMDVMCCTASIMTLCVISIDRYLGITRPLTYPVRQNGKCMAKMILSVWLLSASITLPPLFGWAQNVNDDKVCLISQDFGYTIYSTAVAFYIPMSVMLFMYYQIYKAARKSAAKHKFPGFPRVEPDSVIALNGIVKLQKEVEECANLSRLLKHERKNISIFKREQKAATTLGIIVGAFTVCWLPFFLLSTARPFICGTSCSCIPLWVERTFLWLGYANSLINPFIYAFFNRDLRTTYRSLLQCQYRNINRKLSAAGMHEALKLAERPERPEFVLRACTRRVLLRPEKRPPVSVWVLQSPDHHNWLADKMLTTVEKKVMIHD

[9] = biological target: T15, Platelet Activating Factor (PAF) (Homo sapiens, UniProt P25105); test: Radioligand binding panel (Table S1); conditions: 10 μM T1-11, n 2
T15 construct: purchased MDS Pharma Services Taiwan
T15 sequence (P25105 whole entry): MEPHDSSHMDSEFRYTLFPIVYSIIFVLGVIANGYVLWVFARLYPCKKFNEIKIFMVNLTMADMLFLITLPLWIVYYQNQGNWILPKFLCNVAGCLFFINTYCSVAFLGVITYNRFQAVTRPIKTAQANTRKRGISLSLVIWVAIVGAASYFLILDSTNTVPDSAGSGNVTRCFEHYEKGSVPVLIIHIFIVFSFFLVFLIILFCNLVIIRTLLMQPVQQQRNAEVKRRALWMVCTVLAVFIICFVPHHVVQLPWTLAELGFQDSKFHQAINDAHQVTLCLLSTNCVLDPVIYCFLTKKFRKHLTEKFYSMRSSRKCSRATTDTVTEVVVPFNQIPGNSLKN

[10] = test system: Atrial Natriuretic Factor (ANF); test: Radioligand binding panel (Table S1); parameters: species or system guinea pig; conditions: 10 μM T1-11, n 2
Glucocorticoid = biological target: T16, Glucocorticoid (Homo sapiens, UniProt P04150); test: Radioligand binding panel (Table S1); conditions: 10 μM T1-11, n 2
T16 construct: purchased MDS Pharma Services Taiwan

Bradykinin B1 = biological target: T17, Bradykinin B1 (Homo sapiens, UniProt P46663); test: Radioligand binding panel (Table S1); conditions: 10 μM T1-11, n 2
T17 construct: purchased MDS Pharma Services Taiwan

Galanin GAL2 = biological target: T18, Galanin GAL2 (Homo sapiens, UniProt O43603); test: Radioligand binding panel (Table S1); conditions: 10 μM T1-11, n 2
T18 construct: purchased MDS Pharma Services Taiwan
T18 sequence (O43603 whole entry): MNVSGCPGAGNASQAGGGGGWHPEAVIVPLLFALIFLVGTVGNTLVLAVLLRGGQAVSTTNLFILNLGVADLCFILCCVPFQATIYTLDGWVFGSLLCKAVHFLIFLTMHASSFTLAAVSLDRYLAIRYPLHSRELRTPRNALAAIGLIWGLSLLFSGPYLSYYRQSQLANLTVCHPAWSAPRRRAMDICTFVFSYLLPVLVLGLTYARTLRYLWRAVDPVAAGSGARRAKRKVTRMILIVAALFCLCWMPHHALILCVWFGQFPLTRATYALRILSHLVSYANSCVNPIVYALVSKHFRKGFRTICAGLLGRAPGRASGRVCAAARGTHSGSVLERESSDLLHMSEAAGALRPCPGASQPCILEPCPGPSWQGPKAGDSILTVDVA

[11] = test system: Melatonin MT, Non-Selective; test: Radioligand binding panel (Table S1); parameters: species or system chicken; conditions: 10 μM T1-11, n 2
[12] = biological target: T19, Serotonin (5-Hydroxytryptamine) 5-HT6 (Homo sapiens, UniProt P50406); test: Radioligand binding panel (Table S1); conditions: 10 μM T1-11, n 2
T19 construct: purchased MDS Pharma Services Taiwan

Lipoxygenase 15-LO = biological target: T20, Lipoxygenase 15-LO (Oryctolagus cuniculus, UniProt P12530); test: Radioligand binding panel (Table S1); parameters: species or system rabbit; conditions: 10 μM T1-11, n 2
T20 construct: purchased MDS Pharma Services Taiwan
T20 sequence (P12530 whole entry): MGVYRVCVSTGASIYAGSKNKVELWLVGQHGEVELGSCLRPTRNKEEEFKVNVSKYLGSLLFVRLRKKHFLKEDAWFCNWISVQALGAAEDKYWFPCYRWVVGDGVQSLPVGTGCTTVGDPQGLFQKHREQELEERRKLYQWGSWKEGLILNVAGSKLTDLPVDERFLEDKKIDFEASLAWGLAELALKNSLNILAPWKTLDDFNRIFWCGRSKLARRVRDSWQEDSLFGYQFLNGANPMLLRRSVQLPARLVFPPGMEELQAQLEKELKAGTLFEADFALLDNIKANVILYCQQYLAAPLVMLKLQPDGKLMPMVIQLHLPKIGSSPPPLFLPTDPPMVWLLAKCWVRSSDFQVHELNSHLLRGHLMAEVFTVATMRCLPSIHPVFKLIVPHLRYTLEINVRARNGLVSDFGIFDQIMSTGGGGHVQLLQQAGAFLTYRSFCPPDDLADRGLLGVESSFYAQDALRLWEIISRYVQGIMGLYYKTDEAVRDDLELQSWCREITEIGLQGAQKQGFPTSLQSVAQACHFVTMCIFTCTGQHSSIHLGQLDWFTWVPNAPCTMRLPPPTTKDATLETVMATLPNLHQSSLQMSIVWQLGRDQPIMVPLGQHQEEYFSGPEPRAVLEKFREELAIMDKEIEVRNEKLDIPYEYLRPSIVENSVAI

[13] = biological target: T21, Vasoactive Intestinal Peptide VIP1 (Homo sapiens, UniProt P32241); test: Radioligand binding panel (Table S1); conditions: 10 μM T1-11, n 2
T21 construct: purchased MDS Pharma Services Taiwan

Melatonin MT2 = biological target: T22, Melatonin MT2 (Homo sapiens, UniProt P49286); test: Radioligand binding panel (Table S1); conditions: 10 μM T1-11, n 2
T22 construct: purchased MDS Pharma Services Taiwan

[14] = biological target: T23, Cholecystokinin CCK. (CCK8) (Homo sapiens, UniProt P32239); test: Radioligand binding panel (Table S1); conditions: 10 μM T1-11, n 2
T23 construct: purchased MDS Pharma Services Taiwan
T23 sequence (P32239 whole entry): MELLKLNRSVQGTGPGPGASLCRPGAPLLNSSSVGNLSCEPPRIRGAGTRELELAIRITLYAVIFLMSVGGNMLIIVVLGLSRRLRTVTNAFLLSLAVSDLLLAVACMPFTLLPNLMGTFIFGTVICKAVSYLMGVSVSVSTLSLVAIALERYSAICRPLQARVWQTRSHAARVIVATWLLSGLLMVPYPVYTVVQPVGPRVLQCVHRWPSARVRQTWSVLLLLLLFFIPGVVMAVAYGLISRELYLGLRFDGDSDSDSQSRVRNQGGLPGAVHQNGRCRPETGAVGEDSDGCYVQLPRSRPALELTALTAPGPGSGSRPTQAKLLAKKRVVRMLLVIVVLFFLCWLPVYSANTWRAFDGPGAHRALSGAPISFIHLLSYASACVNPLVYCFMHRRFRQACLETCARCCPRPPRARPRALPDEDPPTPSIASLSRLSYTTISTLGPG

Chemokine CCR5 = biological target: T24, Chemokine CCR5 (Homo sapiens, UniProt P51681); test: Radioligand binding panel (Table S1); conditions: 10 μM T1-11, n 2
T24 construct: purchased MDS Pharma Services Taiwan

[15] = CHO-K1 membranes, 3H-AB-MECA 0.5 nM

With `OC[C@H]1O[C@@H](n2cnc3c(NCc4ccc(O)cc4)ncnc32)[C@H](O)[C@@H]1O` [T1-11, N ^6-(4-hydroxybenzyl)adenine riboside] the inhibition at 10 µM (A3 adenosine receptor; 10 μM T1-11, n 2) was 103%, the IC50 (A3 adenosine receptor; [15]) was 110 nM and the Ki (A3 adenosine receptor; [15]) was 100 nM. The “% Inhibition” value [1] was 6%, the “% Inhibition” value (Phorbol Ester) was 9% and the “% Inhibition” value [2] was 2%. For the same compound, the inhibition at 10 µM [3] was 3%, the inhibition at 10 µM (Chemokine CCR4) was 5% and the inhibition at 10 µM (Erythropoietin EPOR) was 3%. The “% Inhibition” value [4] was -8%, the inhibition at 10 µM [5] was 15% and the inhibition at 10 µM (Adrenomedullin AM1) was 11%. For the same compound, the inhibition at 10 µM [6] was -4%, the inhibition at 10 µM (Dopamine D1) was -13% and the “% Inhibition” value (Colchicine) was -2%. It also gave an inhibition at 10 µM (Lipoxygenase 5-LO) of 25%, an inhibition at 10 µM (Cannabinoid CB2) of -2% and an inhibition at 10 µM (Aldosterone) of 2%. For the same compound, the inhibition at 10 µM (Chemokine CX3CR1) was -1%, the “% Inhibition” value [7] was 15% and the “% Inhibition” value (Thyroid Hormone) was -9%. For the same compound, the “% Inhibition” value (Phosphodiesterase PDE1) was 17%, the inhibition at 10 µM (Histamine H1) was 1% and the inhibition at 10 µM [8] was 2%. The inhibition at 10 µM [9] was 7%, the “% Inhibition” value [10] was 5% and the inhibition at 10 µM (Glucocorticoid) was -10%. The inhibition at 10 µM (Bradykinin B1) was -8%, the inhibition at 10 µM (Galanin GAL2) was 0% and the “% Inhibition” value [11] was -3%. The inhibition at 10 µM [12] was 12%, the inhibition at 10 µM (Lipoxygenase 15-LO) was 14% and the inhibition at 10 µM [13] was 2%. For the same compound, the inhibition at 10 µM (Melatonin MT2) was -20%, the inhibition at 10 µM [14] was -5% and the inhibition at 10 µM (Chemokine CCR5) was -8%.
